From patent US12714682B2, “Calixarene compounds and uses thereof” (UNIVERSITÄT WIEN, priority 2019, dated 2026)
“Also recorded” adds a separate entry of the source.

Legend:
[1] = system: NQO1; test: NQO1 immunoblot in HeLa cells; assay type: cell-based, human; conditions: 48 hours
Method: A specific anti-oxidative effect or activity of a compound is proven, if induces the expression of NQO1 in mammalian cells to a higher level than over vehicle treated cells, preferably by ~3 fold when the compound is used at 500 μM, as determined by a standard assay: Semi-quantitative western blot analysis. HeLa cells are treated with vehicle, 50, 100 and 500 μM of the compound for 48 h and lysed in Triton X-100 extraction buffer (50 mM HEPES [pH 7.4], 140 mM NaCl, 1% Triton X-100, 1 mM EDTA, 0.3 mM DTT and Complete Protease Inhibitor Cocktail). 25 μg of whole cell extract are separated on a 10% SDS-PAGE, after transfer to a PVDF membrane (Bio-Rad), proteins detected by use of standard immunoblotting procedures. […] For the analysis and quantification of the protein levels, Gel Analyzer from ImageJ (National Institute of Health, USA: http://imagej.nih.gov/ij) is used.
To verify experimentally the anti-oxidative effect of SCA-744, the induction of one of these three genes, NQO1, a major anti-oxidative enzyme was investigated. […] In fact, no NQO1 was detected in control cells under the applied experimental conditions, while a prominent signal was induced even at 50 μM, the lowest concentration of SCA-744 tested, that increased by increasing SCA-744 concentrations (approximately 3.5 fold higher signal at 500 μM). […]

[2] = system: LDL-R; test: LDL-R immunofluorescence microscopy in HeLa cells; assay type: cell-based, human; conditions: 50 and 500 μM, 48 hours
Method: In another set of experiments, HeLa cells were treated the same way (50 and 500 μM of SCA-744 for 48 hours). Cells were fixed with 4% paraformaldehyde solution for 10 min at RT and permeabilized with 0.1% Triton X-100 for 15 min at RT and analysed by immunofluorescence microscopy using the same anti-human LDLR antibody employed for the immunoblotting. This detection method was more sensitive, and indicated the presence of LDL-R even in control cells.

[3] = system: C57BL/6J mice; test: LPS-induced acute lung inflammation model: respiratory function (plethysmography); assay type: in vivo; conditions: 100 μg LPS intratracheal, measured 24 h after; SCA-744 60 mg/kg i.p. 4 doses; dexamethasone 5 mg/kg ip. 2 doses
Method: Acute lung inflammation was induced by intratracheal administration of 100 μg LPS (Escherichia coli O111:B4; Sigma Aldrich, St. Louis, MO, USA) dissolved in 60 μl sterile phosphate buffered saline (PBS) under ketamine (120 mg/kg ip.; Calypsol, Gedeon Richter Plc., Budapest, Hungary) and xylazine (6 mg/kg ip.; Sedaxylan, Eurovet Animal Health B.V., Bladel, Netherlands) anaesthesia. 24 h after administration, respiratory function parameters were assessed, and lung samples were harvested for histopathological evaluation.
SCA-744 (60 mg/kg) and its vehicle were injected intraperitoneally (i.p.), 24 h, 12 h, 20 min before and 12 h after intratracheal administration of LPS. […] 24 h and 20 min before LPS treatment. Respiratory function measurement was performed 24 h after LPS administration
Buxco FinePoint Non-invasive Airway Mechanics (NAM) double chamber plethysmography (DSI Harvard Bioscience Inc.) was used to monitor ventilatory and bronchoconstriction parameters in awake, restrained animals without the use of anesthesia. The plethysmograph measures the nasal and thoracic flows independently. […] After 10 minutes of acclimatization period baseline pulmonary functions were assessed, such as the frequency, tidal volume, minute ventilation, expiratory/inspiratory time, peak expiratory/inspiratory flow, and specific airway resistance, a measure of bronchoconstriction.

SMILES: O=S(=O)(O)c1cc2c(O)c(c1)Cc1cc(S(=O)(=O)O)cc(c1O)Cc1cc(S(=O)(=O)O)cc(c1O)Cc1cc(S(=O)(=O)O)cc(c1O)C2 [SCA-744, 4-sulfocalix[4]arene]
- NQO1 immunoblot signal increase ([1]; HeLa, 500 μM, prominent signal already at 50 μM, none in control): approximately 3.5 fold
- NQO1 protein expression (immunoblot) ([1]; HeLa, 50, 100 and 500 μM): significantly increases the expression; also recorded: very significant up-regulation
- level of LDL-R (immunofluorescence, semi-quantitative) [2]: significantly increased the level of LDL-R in a concentration dependent manner
- respiratory function parameters (fBPM, FRC, Te, Rpef, Ti) versus control animals [3]: significantly improved; also recorded: did not induce statistically significant alterations
